This note sets out measurements from paper PMC5848165 (Toxins, 2018).

Test [1] concerns Nav1.7. Briefly: Gating properties of Nav1.7 (current-voltage, steady-state activation and inactivation). Type of test: cell-based, human. On the procedure: We investigated the effects of this toxin on the gating properties of Nav1.7. The current-voltage relationship of Nav1.7 was investigated using step depolarization ranging from −80 to +80 mV from a holding potential of −80 mV. Under control conditions, the threshold of initial activation was about −40 mV, and the inward current peaked at −20 mV. […] The midpoint of channel activation before and after application of 1 µM toxin was −27.9 ± 3.3 and −28.1 ± 2.9 mV, respectively (Figure S3B). […] The effect of JZTX-34 on steady-state inactivation was also investigated using a standard two-pulse protocol as described in the legend. […]
cDNA genes encoding rat Nav1.1, Nav1.2, Nav1.3, Nav1.4, Nav1.5, human Nav1.7 (hNav1.7), and hNav1.8 were subcloned into the vectors pRGB4 and pcDNA3.1-mod, respectively. The chimera of Nav1.5 (Nav1.7-DII-S3-S4) and Nav1.7 (Nav1.5-DIV-S3-S4) were constructed according the methods described previously. Mutations of Nav1.5 and Nav1.7 were constructed using QuikChange II XL Site-Directed Mutagenesis kit (Agilent Technologies Inc, Palo Alto, CA, USA). All chimera and mutations were sequenced to determine the right sequences.
The HEK293T cells were maintained in standard culture conditions (5% CO2 and 37 °C). Then, 10% fetal bovine serum was added to Dulbecco’s modified Eagle’s medium. Sodium channel subtypes (Nav1.1–Nav1.5, Nav1.7), the chimera and mutants of Nav1.5 and Nav1.7 with β1subnit tagged with eGFP in a molar ratio of 2:1, were transiently co-transfected into HEK293 cells using Lipofectamine 3000 (Invitrogen, Carlsbad, CA, USA). Nav1.8, β1subnit, and eGFP were co-transfected into ND cells using the same protocol. After culturing for 36–72 h, cells with obvious green fluorescence were selected for sodium currents recordings the internal solution for sodium currents recording that contained (in mM) 140 CsF, 5 NaCl, 10 HEPES, 3 Na2-ATP, and 10 EGTA. […]
(§1) Sodium currents were recorded from DRG, HEK293, and ND cells by the whole-cell patch-clamp technique at 25 °C. […] Experiments date were acquired from whole-cell Axon 700B patch clamp amplifier (Molecular Devices, Sunnyvale, CA, USA) and analyzed by the program Clampfit10.0 (Molecular Devices, Sunnyvale, CA, USA) and Sigmaplot. […]
Data from Axon 700B patch clamp were analyzed by Clampfit10.0 (Molecular Devices, Sunnyvale, CA, USA). […] The G-V curves were obtained by calculating the conductance (G) at each voltage (V) using the equation G = I/(V1 − Vrev), with Vrev being the reversal potential determined for each cell individually. […] All the results from patch clamp and animal models are expressed as means ± standard error of the mean (SEM). Statistical significance was calculated using Student’s t-test and was defined as p < 0.05. […]

Test [2] has as its system Nav1.6. Put plainly: Whole-cell patch clamp, Nav1.6 in HEK293 cells. It counts as cell-based. Conditions: 1 µM, −10 mV from −80 mV.
Text: (§2) Nine sodium channel subtypes have been identified and classified as TTX-S (Nav1.1–Nav1.4, Nav1.6, and Nav1.7) or TTX-R types (Nav1.5, Nav1.8, and Nav1.9). […] However, the subtype selectivity of JZTX-34 on the subtype of sodium channel is still unknown. In this work, effects of JZTX-34 on VGSC subtypes (Nav1.1–Nav1.8) were examined. Nav1.1–Nav1.7 were transfected into HEK293 cells and Nav1.8 currents were expressed in ND cells. Inward sodium currents were elicited by a 50 ms depolarizing potential to −10 mV from a holding potential of −80 mV every 5 s. […] No effects on other sodium channel subtypes were found (Nav1.1, Nav1.2, Nav1.4–Nav1.6, and Nav1.8) (Figure S2).
The HEK293T cells were maintained in standard culture conditions (5% CO2 and 37 °C). Then, 10% fetal bovine serum was added to Dulbecco’s modified Eagle’s medium. […] After culturing for 36–72 h, cells with obvious green fluorescence were selected for sodium currents recordings the internal solution for sodium currents recording that contained (in mM) 140 CsF, 5 NaCl, 10 HEPES, 3 Na2-ATP, and 10 EGTA. […]
as §1

In test [3] the test system is Nav1.2. Put plainly: Whole-cell patch clamp, Nav1.2 in HEK293 cells. It counts as cell-based, rat. To be noted: 1 µM, −10 mV from −80 mV.
Text: as §2, with “S2). […]” for “S2).”
The HEK293T cells were maintained in standard culture conditions (5% CO2 and 37 °C). […] After culturing for 36–72 h, cells with obvious green fluorescence were selected for sodium currents recordings the internal solution for sodium currents recording that contained (in mM) 140 CsF, 5 NaCl, 10 HEPES, 3 Na2-ATP, and 10 EGTA. […]
as §1

For test [4], the system named is TTX-S sodium channels from rat DRG neurons. Put plainly: Whole-cell patch clamp, TTX-S sodium currents in rat DRG neurons. Type of test: cell-based, rat (Sprague-Dawley). To be noted: 25 °C.

pIC50: −log10 of the molar value. Residues, ends and D or L forms follow the SMILES beside them.

Take `CC(C)C[C@@H]1NC(=O)[C@H](Cc2c[nH]c3ccccc23)NC(=O)[C@H](CCC(=O)O)NC(=O)[C@H](CCCNC(=N)N)NC(=O)[C@@H](NC(=O)[C@H](C)N)CSSC[C@@H]2NC(=O)[C@@H]3CSSC[C@@H](C(=O)N[C@H](C(=O)N[C@@H](Cc4c[nH]c5ccccc45)C(=O)N[C@@H](CC(=O)O)C(=O)N[C@@H](Cc4c[nH]c5ccccc45)C(=O)N[C@H](C(=O)N[C@H](C(=O)O)C(C)C)[C@@H](C)O)C(C)C)NC(=O)[C@H](Cc4c[nH]cn4)NC(=O)[C@H](Cc4ccc(O)cc4)NC(=O)[C@@H]4CCCN4C(=O)[C@H](Cc4c[nH]c5ccccc45)NC(=O)[C@H](CCCCN)NC(=O)[C@H](CCCCN)NC(=O)[C@H](CCCNC(=N)N)NC(=O)[C@H](CSSC[C@H](NC(=O)CNC(=O)CNC1=O)C(=O)N[C@@H](CO)C(=O)N[C@@H](CCCCN)C(=O)N[C@@H](CC(=O)O)C(=O)N[C@@H](C)C(=O)N[C@@H](CC(=O)O)C(=O)N3)NC(=O)[C@H](CCC(=O)O)NC(=O)[C@H](CC(C)C)NC(=O)[C@H](Cc1c[nH]cn1)NC(=O)[C@H](C)NC2=O` [JZTX-34, Jingzhaotoxin-34] (HELM PEPTIDE1{A.C.R.E.W.L.G.G.C.S.K.D.A.D.C.C.A.H.L.E.C.R.K.K.W.P.Y.H.C.V.W.D.W.T.V}$PEPTIDE1,PEPTIDE1,2:R3-16:R3|PEPTIDE1,PEPTIDE1,9:R3-21:R3|PEPTIDE1,PEPTIDE1,15:R3-29:R3$$$V2.0; N-terminus and C-terminus assumed): in test [1] (1 µM), the “shift of steady-state inactivation” value is listed as “small hyperpolarizing shift in the steady-state inactivation”. The “midpoint of steady-state inactivation with toxin” value in test [1] (1 µM, "with or without" toxin −67.3 and −73.7 mV, respectively, 500 ms prepulse −100 to −10 mV, test pulse −10 mV 20 ms, n = 5) is reported as “about −67.3 mV”. Further, the “current-voltage relationship of Nav1.7” value in test [1] (1 µM, steps −80 to +80 mV from −80 mV holding) is recorded as “did not alter the current-voltage relationship”. Besides, the “midpoint of channel activation after toxin” value in test [1] (after 1 µM toxin (before: −27.9 ± 3.3 mV), Boltzmann fit, n = 5) is recorded as −28.1 ± 2.9 mV. Also, the “effect on Nav1.6 currents” value in test [2] is “No effects”. Also, in test [3], the “effect on Nav1.2 currents” value is recorded as “No effects”. Further, in test [4] (1 µM synthetic JZTX-34, 50 ms depolarization to −10 mV from −80 mV), the “inhibition of TTX-S sodium currents” value is ~ 81%. In addition, the pIC50 in test [4] (synthetic toxin, Hill fit, n = 5, −10 mV from −80 mV holding) is 7.04.
